According to patent publication US20180071188A1, “COMPOSITION FOR THE PERMANENT DEFORMATION OF HAIR HAVING REDUCED ODOUR” (The Procter & Gamble Company, priority 2016, published 2018):

Key:
[1] = distribution coefficient log P (octanol/water); assay type: physicochemical; details: raw material of malodor suppressant system
Source text: In the fields of organic and medicinal chemistry, a distribution (P) coefficient is the ratio of concentrations of a compound in the two phases of a mixture of two immiscible solvents at equilibrium. […] One of the solvents chosen is water while the second is octanol. […] The partition coefficient is the ratio of concentrations of un-ionized compound between the two solutions. The logarithm of the ratio of the concentrations of the un-ionized solute in the solvents is called log P:
The log P (octanol/water) is referred hereinafter as “log P”, unless otherwise specified.

[2] = density of malodor suppressant; assay type: physicochemical; details: 23° C., 1.013 bar
Procedure: All densities relate to a temperature of 23° C. and a pressure of 1.013 bar. Density measurements are typically performed via determining the weight and the volume of the compound to be measured, or according to any other processes known to the skilled person.

[3] = Test Procedure 2: panel test rating thiol malodor of permanent shaping premix mixed with malodor suppressant system; details: scale 0 to 5 (0=no thiol smell, 5=harsh thiol smell); 5 panelists; premix + 0.7 wt.-% suppressant system; same rating immediately and 25 min after mixing
Procedure: A […] performed with 5 panelists with trained expertise in the classification of thiol malodour. The panelists received a mixture of the permanent shaping premix and 0.7 wt.-% of one malodor suppressant system, as described above (stirred by a single operator for all tests). Immediately and 25 min after mixing, the panelists were asked to rate the thiol malodor according to a scale of 0 to 5 (0=no thiol smell, 5=harsh thiol smell), the mixture being passed from panelist to panelist with an additional stirring for each of the panelists. The same odor rating is obtained immediately after mixing and 25 min after mixing.

Row | logP ([1]; octanol/water) | density [2] [g/mL] | log P (octanol/water) [1] | Compound | Odor (thiol malodor rating) [3] | logP [1]
1 | – | 0.971 | 5.79 | CC1COC(C)(c2ccc3c(c2)C(C)(C)CCC3(C)C)O1 (centres unmarked) [S5, Okoumal] | 3 | –
2 | – | 1.129 | – | O=C(OCc1ccccc1)c1ccccc1 [S6, Benzyl benzoate] | 3 | –

More lines, now with the values behind:

Row | Compound | logP ([1]; octanol/water) | density [2] [g/mL] | log P (octanol/water) [1] | Odor (thiol malodor rating) [3] | logP [1]
3 | CCCCCCCCCCCCCC(=O)OC(C)C [S1, isopropylmyristate] | 7.41 | 0.864 | – | 3 | –
4 | O=C1CCCCCCCCC/C=C/CCCO1 [S2, Habanolide] | – | 0.901 | 4.77 | 4 | –
5 | CC1COCc2cc3c(cc21)C(C)(C)C(C)C3(C)C (centres unmarked) [S3, Galaxolide] | – | 0.946 | – | 1-2 | 5.93
6 | Operanide [S4] | – | 1.01 | 4.90 | 2 | –
